Measured values taken from ChEMBL document CHEMBL5674871, “EZH2 is required for mouse oocyte meiotic maturation by interacting with and stabilizing spindle assembly checkpoint protein BubRI” (Nucleic Acids Res, 2016).
The source made the active and inactive calls. The calls are words filed in the database; no cut-off is given here.

Columns and labels:
[1] = molecular target: Histone-lysine N-methyltransferase EZH2 (Mus musculus) (UniProt Q61188); assay: Inhibition of EZH2 in ICR mouse oocyte assessed as effect on H3 level at 1 uM by Immunofluorescence analysis; assay type: cell-based
[2] = system: Oocyte; assay: Effect on ICR mouse oocyte meiotic maturation assessed as PB1 extrusions at 1 uM by immunofluorescence analysis; assay type: functional, cell-based
[3] = molecular target: Histone-lysine N-methyltransferase EZH2 (Mus musculus) (UniProt Q61188); assay: Inhibition of EZH2 in ICR mouse oocyte assessed as EED protein level at 1 uM by Western blot analysis; assay type: cell-based
[4] = system: Oocyte; assay: Effect on ICR mouse oocyte meiotic maturation assessed as abnormal polar bodies extrusions at 1 uM after 14 hrs by immunofluorescence analysis; assay type: functional, cell-based
[5] = system: Oocyte; assay: Effect on EZH2 protein expression in ICR mouse oocyte at 1 uM for 14 hrs by Western blot analysis; assay type: functional, cell-based
[6] = molecular target: Histone-lysine N-methyltransferase EZH2 (Mus musculus) (UniProt Q61188); assay: Inhibition of EZH2 in ICR mouse oocyte assessed as SUZ12 protein level at 1 uM by Western blot analysis; assay type: cell-based
[7] = molecular target: Histone-lysine N-methyltransferase EZH2 (Mus musculus) (UniProt Q61188); assay: Inhibition of EZH2 methyltransferase activity in ICR mouse oocyte assessed as decrease in H3K27 trimethylation level at 1 uM by Immunofluorescence analysis; assay type: cell-based
[8] = molecular target: Histone-lysine N-methyltransferase EZH2 (Mus musculus) (UniProt Q61188); assay: Inhibition of EZH2 methyltransferase activity in ICR mouse oocyte assessed as effect on H3K9me2 level at 1 uM by Immunofluorescence analysis; assay type: cell-based
[9] = molecular target: Histone-lysine N-methyltransferase EZH2 (Mus musculus) (UniProt Q61188); assay: Inhibition of EZH2 in ICR mouse oocyte assessed as SUZ12 protein level at 5 uM by Western blot analysis; assay type: cell-based
[10] = system: Oocyte; assay: Effect on ICR mouse oocyte meiotic maturation assessed as PB1 extrusions at 5 uM by immunofluorescence analysis; assay type: functional, cell-based
[11] = molecular target: Histone-lysine N-methyltransferase EZH2 (Mus musculus) (UniProt Q61188); assay: Inhibition of EZH2 in ICR mouse oocyte assessed as decrease in H3K27 trimethylation level at 5 uM by Immunofluorescence analysis; assay type: cell-based
[12] = system: Oocyte; assay: Effect on EZH2 protein expression in ICR mouse oocyte at 5 uM for 14 hrs by Western blot analysis; assay type: functional, cell-based
[13] = molecular target: Histone-lysine N-methyltransferase EZH2 (Mus musculus) (UniProt Q61188); assay: Inhibition of EZH2 methyltransferase activity in ICR mouse oocyte assessed as decrease in H3K9me2 level at 5 uM by Immunofluorescence analysis; assay type: cell-based
[14] = molecular target: Histone-lysine N-methyltransferase EZH2 (Mus musculus) (UniProt Q61188); assay: Inhibition of EZH2 in ICR mouse oocyte assessed as effect on H3 level at 5 uM by Immunofluorescence analysis; assay type: cell-based
[15] = molecular target: Histone-lysine N-methyltransferase EZH2 (Mus musculus) (UniProt Q61188); assay: Inhibition of EZH2 in ICR mouse oocyte assessed as EED protein level at 5 uM by Western blot analysis; assay type: cell-based

Chain of Histone-lysine N-methyltransferase EZH2 (Mus musculus) (Q61188 whole entry): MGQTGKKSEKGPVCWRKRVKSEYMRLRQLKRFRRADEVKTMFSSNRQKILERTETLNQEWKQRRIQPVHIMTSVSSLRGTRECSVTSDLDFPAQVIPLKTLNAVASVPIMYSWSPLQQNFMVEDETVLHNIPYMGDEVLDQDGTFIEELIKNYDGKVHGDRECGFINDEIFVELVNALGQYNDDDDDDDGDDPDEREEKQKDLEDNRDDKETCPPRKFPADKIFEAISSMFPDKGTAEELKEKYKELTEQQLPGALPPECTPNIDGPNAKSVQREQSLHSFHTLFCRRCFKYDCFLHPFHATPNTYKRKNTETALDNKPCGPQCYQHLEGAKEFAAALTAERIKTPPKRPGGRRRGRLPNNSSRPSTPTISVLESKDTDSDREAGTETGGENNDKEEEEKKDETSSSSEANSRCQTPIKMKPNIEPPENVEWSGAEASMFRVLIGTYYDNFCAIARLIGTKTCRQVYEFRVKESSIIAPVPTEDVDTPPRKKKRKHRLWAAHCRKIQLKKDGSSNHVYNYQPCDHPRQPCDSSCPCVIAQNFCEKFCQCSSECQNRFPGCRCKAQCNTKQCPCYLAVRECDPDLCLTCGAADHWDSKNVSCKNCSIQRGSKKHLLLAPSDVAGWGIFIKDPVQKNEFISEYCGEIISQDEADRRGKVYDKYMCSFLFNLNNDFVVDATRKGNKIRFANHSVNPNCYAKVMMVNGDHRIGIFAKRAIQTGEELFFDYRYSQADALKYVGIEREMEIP

With `CCCc1cc(C)[nH]c(=O)c1CNC(=O)c1cc(-c2ccnc(N3CCN(C)CC3)c2)cc2c1cnn2C(C)C` the inhibition [1] was “inactive”, the Activity [2] was “inactive” and the inhibition [3] was “inactive”. For the same compound, the Activity [4] was “Active”, the Activity [5] was “inactive” and the inhibition [6] was “inactive”. For the same compound, the inhibition [7] was “Active” and the inhibition [8] was “inactive”.

For `Nc1nccc2c1ncn2[C@@H]1C=C(CO)[C@@H](O)[C@H]1O`, the inhibition [9] was “inactive”, the Activity [10] was “inactive” and the inhibition [11] was “Active”. For the same compound, the Activity [12] was “inactive”, the inhibition [13] was “Active” and the inhibition [14] was “inactive”. For the same compound, the inhibition [15] was “inactive”.
